According to patent US5679677A, “Heterocyclic carbamates, process for their preparation and medicaments” (Luitpold Pharma GmbH, priority 1993, dated 1997):
Entries after “also recorded” stand apart in the source; their conditions may differ. Counter-ions that a name gives are not always drawn.

Assays:
[1] = target: T1, elastase from human granulocytes (Homo sapiens, UniProt P08246); assay: Inhibition of granulocyte elastase (enzyme inhibition test, substrate L-pyroglutaminyl-L-prolyl-L-valine-p-nitroanilide); type: biochemical; conditions: substrate L-pyroglutaminyl-L-prolyl-L-valine-p-nitro-anilide, read-out: IC50 (concentration for 50% inhibition) of granulocytic elastase
T1 construct: from tissue; host or cells: human granulocytes
T1 sequence (P08246 30-247 limits assumed): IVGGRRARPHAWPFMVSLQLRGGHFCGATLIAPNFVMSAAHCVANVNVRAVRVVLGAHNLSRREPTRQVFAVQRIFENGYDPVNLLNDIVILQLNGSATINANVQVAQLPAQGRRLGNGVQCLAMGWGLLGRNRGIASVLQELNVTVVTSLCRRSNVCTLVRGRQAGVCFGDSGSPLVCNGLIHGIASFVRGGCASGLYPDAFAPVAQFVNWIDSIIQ
Protocol: The inhibition of granulocyte elastase was determined in an enzyme inhibition test using elastase from human granulocytes. In this test the specific substrate L-pyroglutaminyl-[…]-nitro-anilide was used ([…] et al., Scand. J. Lab. Invest. 43 (1983) 427-432). The IC50 values (concentrations for 50% inhibition) are shown in Table 1 for exemplary compounds according to the invention.

[2] = Antithrombotic action in the tail-bleeding time model on the rat (modified test according to Diness); type: in vivo; conditions: groups of 10, oral administration, 200 mg/kg
Protocol: The compound from Example 14 at a dose of 200 mg/kg thus prolonged the bleeding time by 103%.

[3] = Hygroscopicity of isolated solid; type: physicochemical; conditions: hydrochloride

Row | Compound | IC50 [1] [µM] | prolongation of the bleeding time [2] [%] | hygroscopicity / behaviour in air (in words) [3]
1 | COC(=O)c1ccc(OC(=O)n2nnc3ccccc3c2=O)cc1 [Example 4] | 8.3 | – | –
2 | Cc1nn(C(=O)Oc2ccccc2)c(=O)c2ccccc12 [Example 6] | 0.75 | – | –
3 | O=C(Oc1ccccc1)n1c(SCc2ccccc2)nc2ccccc2c1=O [Example 13] | 4 | – | –
4 | CCOC(=O)n1c(SCc2ccccc2)nc2ccccc2c1=O [Example 14] | 6 | 103 | –
5 | CN1CCCC(OC(=O)n2ccc3ccccc3c2=O)C1 (stereo not drawn) [Example 19, N'-Methylpiperidin-3-yl isoquinolin-1(2 H)-one-N-carboxylate hydrochloride] | – | – | very hygroscopic; also recorded: deliquesces in air

Further molecules by falling IC50 [1], results first:

Row | IC50 [1] [µM] | Compound | prolongation of the bleeding time [2] [%] | hygroscopicity / behaviour in air (in words) [3]
6 | 5.4 | CCOC(=O)Oc1cccc2c(=O)n(C(=O)OCC)ccc12 [Example 15, Ethyl 5-ethoxycarbonyloxyisoquinolin-1(2 H)-one-N-carboxylate] | – | –
7 | 0.3 | CCOC(=O)n1ccc2ccccc2c1=O [Example 2] | – | –
8 | 0.2 | O=C(Oc1ccccc1)n1ncc2ccccc2c1=O [Example 1, Phenyl 1(2 H)-phthalazinone-N-carboxylate] | – | –
